# US20140342379A1, “Means and Methods for Assessing Gonadal Toxicity” (BASF SE, priority 2011, published 2014)
# Marks after values point to notes of the source that are not given here.
# Tested on: male rats
# Assay: 28-day repeated dose study, plasma metabolite profiling (GC-MS, LC-MS), male rats
# Format: in vivo, rat
# From the text: Drinking water was also offered ad libitum.
smiles,measurement,setting,value
COCCO [2-Methoxyethanol],"3-Hydroxybutyrate, plasma, treatment ratio versus control",day 7,0.45*
same,"3-O-Methylsphingosine (d18:1), plasma, treatment ratio versus control",day 7,0.53*
same,"5-Oxoproline, plasma, treatment ratio versus control",day 7,0.76*
same,"Campesterol, plasma, treatment ratio versus control",day 7,0.58*
same,"Ceramide (d18:1,C24:0), plasma, treatment ratio versus control",day 7,0.75*
same,"Ceramide (d18:1,C24:1), plasma, treatment ratio versus control",day 7,0.82
same,"Cholesterol, plasma, treatment ratio versus control",day 7,0.58*
same,"Coenzyme Q9, plasma, treatment ratio versus control",day 7,0.57*
same,"Coenzyme Q10, plasma, treatment ratio versus control",day 7,0.7*
same,"Dodecanol, plasma, treatment ratio versus control",day 7,0.8
same,"Glutamine, plasma, treatment ratio versus control",day 7,0.68*
same,"Histidine, plasma, treatment ratio versus control",day 7,1.13
same,"Isopalmitic acid (C16:0), plasma, treatment ratio versus control",day 7,1.03
same,"Lignoceric acid (C24:0), plasma, treatment ratio versus control",day 7,0.61*
same,"Linoleic acid (C18:cis[9,12]2), plasma, treatment ratio versus control",day 7,1.07
same,"Lysine, plasma, treatment ratio versus control",day 7,1.22*
same,"Myristic acid (C14:0), plasma, treatment ratio versus control",day 7,0.87
same,"Palmitic acid (C16:0), plasma, treatment ratio versus control",day 7,0.92
same,"Palmitoleic acid (C16:cis[9]1), plasma, treatment ratio versus control",day 7,0.71*
same,"Sphingomyelin (d18:1,C16:0), plasma, treatment ratio versus control",day 7,0.84*
same,"Sphingomyelin (d18:1,C24:0), plasma, treatment ratio versus control",day 7,0.68*
same,"Stearic acid (C18:0), plasma, treatment ratio versus control",day 7,0.8*
same,"Threonine, plasma, treatment ratio versus control",day 7,1.72*
same,"alpha-Tocopherol, plasma, treatment ratio versus control",day 7,0.78
same,"erythro-Sphingosine, plasma, treatment ratio versus control",day 7,0.57*
same,"3-Hydroxybutyrate, plasma, treatment ratio versus control",day 14,0.24*
same,"3-O-Methylsphingosine (d18:1), plasma, treatment ratio versus control",day 14,0.67*
same,"5-Oxoproline, plasma, treatment ratio versus control",day 14,0.67*
same,"Ceramide (d18:1,C24:0), plasma, treatment ratio versus control",day 14,0.7*
same,"Ceramide (d18:1,C24:1), plasma, treatment ratio versus control",day 14,0.62*
same,"Cholesterol, plasma, treatment ratio versus control",day 14,0.61*
same,"Coenzyme Q9, plasma, treatment ratio versus control",day 14,0.58*
same,"Coenzyme Q10, plasma, treatment ratio versus control",day 14,0.49*
same,"Dodecanol, plasma, treatment ratio versus control",day 14,0.77*
same,"Glutamine, plasma, treatment ratio versus control",day 14,0.71
same,"Histidine, plasma, treatment ratio versus control",day 14,1.4*
same,"Isopalmitic acid (C16:0), plasma, treatment ratio versus control",day 14,0.43*
same,"Lignoceric acid (C24:0), plasma, treatment ratio versus control",day 14,0.46*
same,"Linoleic acid (C18:cis[9,12]2), plasma, treatment ratio versus control",day 14,0.77*
same,"Myristic acid (C14:0), plasma, treatment ratio versus control",day 14,0.57*
same,"Palmitic acid (C16:0), plasma, treatment ratio versus control",day 14,0.75*
same,"Palmitoleic acid (C16:cis[9]1), plasma, treatment ratio versus control",day 14,0.39*
same,"Sphingomyelin (d18:1,C16:0), plasma, treatment ratio versus control",day 14,0.88*
same,"Sphingomyelin (d18:1,C24:0), plasma, treatment ratio versus control",day 14,0.56*
same,"Stearic acid (C18:0), plasma, treatment ratio versus control",day 14,0.84*
same,"Threonine, plasma, treatment ratio versus control",day 14,2.93*
same,"alpha-Tocopherol, plasma, treatment ratio versus control",day 14,0.76*
same,"erythro-Sphingosine, plasma, treatment ratio versus control",day 14,0.67*
